From the CheMixHub ionic liquid set

Experiment: xn = mol fraction of the nth substance listed

CCCCCC(=O)[O-].C[NH+](C)Cc1ccccc1 + CN(C)C=O
viscosity [mPa·s], 101 kPa
Conditions	293.15 K	298.15 K	303.15 K	308.15 K	313.15 K	318.15 K	323.15 K	328.15 K
x1 = 0.005406	0.956	0.916	0.879	0.847	0.818	0.792	0.769	0.748
x1 = 0.008974	0.969	0.927	0.889	0.855	0.825	0.798	0.774	0.752
x1 = 0.01235	0.978	0.934	0.895	0.861	0.83	0.803	0.778	0.755
x1 = 0.01781	1.002	0.955	0.913	0.877	0.844	0.815	0.789	0.765
x1 = 0.01976	1	0.954	0.913	0.877	0.844	0.816	0.79	0.766
x2 = 0.9681	1.042	0.99	0.945	0.905	0.869	0.837	0.809	0.784
x2 = 0.9717	1.03	0.98	0.935	0.896	0.862	0.831	0.803	0.778
x2 = 0.9757	1.02	0.971	0.928	0.89	0.856	0.826	0.799	0.774

O=C([O-])CC(O)(CC(=O)[O-])C(=O)[O-].[Li+].[Li+].[Li+] + CC[n+]1ccn(C)c1.O=S(=O)([O-])O + O
viscosity [mPa·s], 101 kPa
Conditions	293.15 K	298.15 K	303.15 K	308.15 K	313.15 K
x1 = 0.0003639, x2 = 0	1.022	0.927	0.835	0.757	0.691
x1 = 0.0007293, x2 = 0	1.043	0.946	0.854	0.776	0.712
x1 = 0.0008074, x2 = 0.0007287	1.082	1.003	0.885	0.81	0.751
x1 = 0.0008123, x2 = 0.000664	1.069	0.99	0.883	0.811	0.734
x1 = 0.0008236, x2 = 0.0009246	1.112	1.003	0.906	0.825	0.745
x1 = 0.0009579, x2 = 0.0007286	1.09	1.01	0.892	0.817	0.758
x1 = 0.000959, x2 = 0.0006639	1.077	0.996	0.89	0.818	0.741
x1 = 0.001091, x2 = 0	1.063	0.961	0.869	0.793	0.729
x1 = 0.001134, x2 = 0.0009243	1.13	1.017	0.92	0.84	0.761
x1 = 0.001339, x2 = 0.0009241	1.142	1.025	0.929	0.849	0.771
x1 = 0.001445, x2 = 0	1.083	0.974	0.883	0.807	0.745
x1 = 0.001498, x2 = 0.0007282	1.121	1.032	0.914	0.841	0.784
x1 = 0.001582, x2 = 0.0006634	1.113	1.021	0.915	0.845	0.769
x1 = 0.001715, x2 = 0.000728	1.134	1.04	0.923	0.85	0.794
x1 = 0.001743, x2 = 0.0006633	1.122	1.026	0.922	0.852	0.776
x1 = 0.001787, x2 = 0.0009237	1.169	1.042	0.947	0.869	0.791
x1 = 0.001793, x2 = 0	1.102	0.986	0.896	0.821	0.759
x1 = 0.002226, x2 = 0	1.126	1	0.911	0.837	0.777
x1 = 0.002241, x2 = 0.000663	1.15	1.044	0.94	0.871	0.797
x1 = 0.002241, x2 = 0.0007276	1.164	1.059	0.942	0.871	0.817
x1 = 0.002293, x2 = 0.0009233	1.198	1.061	0.967	0.89	0.814
x1 = 0.002592, x2 = 0.0006628	1.17	1.055	0.952	0.884	0.811
x1 = 0.002633, x2 = 0.0007274	1.186	1.073	0.956	0.886	0.833
x1 = 0.002689, x2 = 0.0009229	1.221	1.074	0.981	0.906	0.831
x1 = 0.002748, x2 = 0	1.155	1.016	0.928	0.855	0.797

CC[N+](CC)(CC)CC.[Br-] + CCCCCCCCCCCCCCn1cc[n+](C)c1.[Br-] + O
electrical conductivity [S/m], 101 kPa, frequency 0.001 MHz
Conditions	298.15 K	308.15 K	318.15 K
x2 = 0, x1 = 1.802e-05	0.0115	0.0142	0.0177
x2 = 0, x1 = 3.604e-05	0.0198	0.024	0.0294
x2 = 0, x1 = 9.009e-05	0.0417	0.0509	0.0613

CCCCCCCCCCCCCC[P+](CCCCCC)(CCCCCC)CCCCCC.[Cl-] + O
100 kPa, x2 = 0.818
Conditions	viscosity [mPa·s]
318.15 K	50.65
323.15 K	41.05

CCCC[n+]1ccccc1.F[B-](F)(F)F + CCCC[n+]1ccccc1.O=S(=O)([N-]S(=O)(=O)C(F)(F)F)C(F)(F)F
101 kPa, x2 = 0
Conditions	viscosity [mPa·s]
303.15 K	123.6
353.15 K	17.7

CC[n+]1ccccc1.N#C[N-]C#N + CC(C)O
100 kPa
Conditions	viscosity [mPa·s]
288.15 K, x2 = 0.2997	15.1
293.15 K, x2 = 0.1055	18
298.15 K, x2 = 0.4023	9.28
303.15 K, x2 = 0.5998	5.49
308.15 K, x2 = 0.7006	3.8
308.15 K, x2 = 0.8997	2.27
313.15 K, x2 = 0	12.5
313.15 K, x2 = 0.5998	4.42
313.15 K, x2 = 0.7006	3.43
313.15 K, x2 = 0.8007	2.66
318.15 K, x2 = 0.5998	3.99
318.15 K, x2 = 0.7006	3.11

CC(C)[C@H](NC(=O)CN)C(=O)O + CCCCCCCCCCCC[N+](C)(C)Cc1ccccc1.[Cl-] + O
electrical conductivity [S/m], 101 kPa
Conditions	293.15 K	298.15 K	303.15 K	308.15 K	313.15 K
x1 = 0.0008948, x2 = 0	0.00327	0.00375	0.00427	0.00485	0.0055
x1 = 0.001799, x2 = 0	0.00533	0.00608	0.0069	0.0078	0.00879

CCCCCC[n+]1ccn(C)c1.[Cl-] + CN(C)C=O
101 kPa
Conditions	viscosity [mPa·s]
288.15 K, x2 = 0.2751	230
308.15 K, x2 = 0.6856	9.1

C[n+]1ccn(CCCC#N)c1.O=S(=O)([O-])C(F)(F)F + O=C1CCCO1
100 kPa
Conditions	electrical conductivity [S/m]
288.15 K, x1 = 0.3003	0.53
288.15 K, x1 = 0.6002	0.186
288.15 K, x1 = 1	0.023
293.15 K, x1 = 0.9004	0.069
298.15 K, x1 = 0.9004	0.092
303.15 K, x1 = 0.4999	0.459
303.15 K, x1 = 0.8002	0.179
303.15 K, x1 = 0.9004	0.12
308.15 K, x1 = 0.6002	0.408
308.15 K, x1 = 1	0.083
313.15 K, x1 = 0.3003	1.08
313.15 K, x1 = 0.6002	0.476
313.15 K, x1 = 0.7001	0.372
318.15 K, x1 = 0.8002	0.323
318.15 K, x1 = 0.9004	0.234
318.15 K, x1 = 1	0.134
323.15 K, x1 = 0.3003	1.344
323.15 K, x1 = 0.8002	0.384
323.15 K, x1 = 0.9004	0.281
323.15 K, x1 = 1	0.167
333.15 K, x1 = 0.3999	1.323
338.15 K, x1 = 0.3003	1.79
338.15 K, x1 = 1	0.3
343.15 K, x1 = 0.7001	0.851

CCC(C)O (configuration not stated) + CC[n+]1ccn(C)c1.O=S(=O)([O-])C(F)(F)F
Conditions	viscosity [mPa·s]
308.15 K, 101 kPa, x2 = 0	2

CCCC[N+]1(C)CCCCC1.F[P-](F)(F)(F)(F)F + CCCC[N+]1(C)CCCC1.F[P-](F)(F)(F)(F)F
102 kPa
Conditions	viscosity [mPa·s]
353.15 K, x1 = 0.5	154
383.15 K, x1 = 0.3	41

CCC(C)O (configuration not stated) + CC[n+]1ccn(C)c1.N#C[N-]C#N
100 kPa, x2 = 0
Conditions	viscosity [mPa·s]
298.15 K	3.01
303.15 K	2.55
308.15 K	2.21
313.15 K	1.97
318.15 K	1.79
323.15 K	1.63

c1c[nH]cn1 + CCCCCC[N+]1(C)CCCC1.O=S(=O)([N-]S(=O)(=O)C(F)(F)F)C(F)(F)F
101.33 kPa, x2 = 0.5
Conditions	viscosity [mPa·s]
343.15 K	11
353.15 K	8

C[n+]1ccn(CCCC#N)c1.O=S(=O)([O-])C(F)(F)F + CC#N
101 kPa
Conditions	electrical conductivity [S/m]	viscosity [mPa·s]
288.15 K, x1 = 0.1002	2.7	1.65
288.15 K, x1 = 0.2994	1.04	16.49
288.15 K, x1 = 0.5	0.185	109.8
293.15 K, x1 = 0.6005	0.22	119.8
298.15 K, x1 = 0.7996	0.114	307
303.15 K, x1 = 0.9007	0.082	330
303.15 K, x1 = 1	0.06	422
308.15 K, x1 = 0.2994	1.7	9.19
308.15 K, x1 = 1	0.08	310
313.15 K, x1 = 0.2002	2.88	3.74
313.15 K, x1 = 0.5	0.575	36.34
313.15 K, x1 = 0.7996	0.239	133.1
318.15 K, x1 = 0.1002	3.76	1.06
318.15 K, x1 = 0.5	0.679	29.94
318.15 K, x1 = 0.698	0.351	73.7
318.15 K, x1 = 0.9007	0.168	135
323.15 K, x1 = 0.1002	3.95	0.99
323.15 K, x1 = 0.6005	0.7	32.11
